Measurements from publication PMC5893557, “Small tumor necrosis factor receptor biologics inhibit the tumor necrosis factor-p38 signalling axis and inflammation” (Nature Communications, 2018).
Where two headings read alike, the source gives them in different places. Residues, ends and D or L forms follow the SMILES beside them. No end group written: not given here.

Assays:
[1] = system: human neutrophils; assay: TNF70–80-induced lucigenin-dependent chemiluminescence (superoxide) in neutrophils; type: cell-based
Method: (§1) Neutrophil superoxide production was measured by an indirect assay involving the reduction of the lucigenin, (9, 9′-bis N-methyl-acridinium nitrate) (Sigma-Aldrich, Castle Hill, NSW, Australia) and measuring the light output by lucigenin-dependant chemiluminescence. […] After incubation, 500 μl of lucigenin (250 μM, final) was added and the final volume was adjusted to 1 ml. The cells were placed in luminometer (Autolumat Plus Model LB 953, Berthold Technologies, Bundoora, VIC, Australia) and the resulting chemiluminescence (in relative light units, RLU) measured. The results are expressed as maximal/peak rate of chemiluminescence produced unless specified otherwise. CR3 expression on neutrophils was measured by flow cytometry using anti-CD11b antibodies. […] After treatment, 2 μl of PE-labelled mouse IgG2a isotype control (Clone X39) or PE-labelled monoclonal anti-CD11b antibody (Clone D12) (both from BD Biosciences, North Ryde, NSW, Australia) was added to neutrophils in 200 μl of Isoton II (BD Biosciences) supplemented with 0.1% (w/v) BSA. After 30 min the cells were washed, fixed with formaldehyde (0.1%) and analysed on a FACScan (BD Biosciences, North Ryde, NSW, Australia). Cytokine (IL-1β and IL-8) mRNA productions were measured by quantitative RT-PCR. Briefly, total RNA was extracted from 1 × 10^6 neutrophils using the TRIzol reagent (Life Technologies Australia Pty, Mulgrave, VIC, Australia) according to the manufacturer’s instructions. RNA was converted to cDNA using iScript cDNA synthesis kit (Bio-rad, Hercules, CA, USA).

[2] = target: TNF-induced neutrophil CL production (Homo sapiens, UniProt P01375); conditions: read-out: IC50, inhibition of TNF-induced CL production; TNF (1 ng/ml) pre-treated with peptide for 30 min, human neutrophils, lucigenin chemiluminescence
Method: as §1

[3] = system: TNF-rich medium-induced superoxide production in neutrophils; assay: TNF-rich medium (RM)-induced chemiluminescence in neutrophils; type: cell-based, human
[4] = system: CD11b expression in neutrophils; assay: TNF-induced CD11b (CR3) expression in neutrophils, flow cytometry; type: cell-based, human; conditions: TNF (5 ng/ml) pre-treated 20 min with 200 μM peptide unless otherwise specified
Method: as §1, with “Briefly, total RNA was extracted from 1 × 10^6 neutrophils using the TRIzol reagent (Life Technologies Australia Pty, Mulgrave, VIC, Australia) according to the manufacturer’s instructions. RNA was converted to cDNA using iScript cDNA synthesis kit (Bio-rad, Hercules, CA, USA).” left out

[5] = system: TNF; assay: Solid phase binding of TNF to coated TNFRI peptide; parameters: species or system human; conditions: peptide-coated plates, 50 U TNF, biotinylated anti-TNF antibody detection
Method: Depending on the experiment, microtitre plates were coated with 100 μl/well of either 3 μg/ml TNFRI198–211 in MilliQ water or TNFRI206–211 or the corresponding scrambled peptide in carbonate-bicarbonate buffer (pH 9.6) overnight at 4 °C and blocked with 1% BSA and 0.05% Tween-20 in PBS for 1 h at 4 °C. In the TNFRI198–211-coated plates, various concentrations of biotinylated TNF70–80 or control peptide were added to triplicate wells and incubated for 3 h at 4 °C. In the TNFRI206–211/scrambled peptide-coated plates, 50 U of TNF was added to triplicate wells, followed by washing with wash buffer (PBS/0.05% Tween-20) and then incubation with 50 μl of 1.5 μg/ml biotinylated monoclonal anti-TNF antibody (clone 2TNF-H33, ThermoScientific, Waltham, MA, USA). The wells from all plates were washed four times with wash buffer, then incubated with 100 μl/well of poly-horseradish peroxidase streptavidin conjugate (1/6000 dilution in 1% BSA and 0.05% Tween-20 in PBS) (ThermoScientific, Waltham, MA, USA) for 45 min at 4 °C. Wells were washed four times with wash buffer and bound enzyme detected by the addition of TMB substrate (Sigma-Aldrich, Castle Hill, NSW, Australia). Absorbance was measured using dual filter at 570/450 nm on a Dynatech MR700 Plate Reader (Guernsey, Channel Islands).

[6] = target: T1, recombinant human soluble TNFRI (Homo sapiens, UniProt P19438); assay: Inhibition of biotin-labelled TNF70–80 binding to immobilised soluble TNFRI; conditions: tested at 1 mM in the presence of 10 μM biotinylated TNF70–80
T1 construct: rHusTNFRI (22–211), prepared as a chimeric protein; Fc portion of human IgG1; 6x histidine; purchased ProSpec-Tany TechnoGene Ltd (Rehovot, Israel)
T1 sequence (P19438 22-211): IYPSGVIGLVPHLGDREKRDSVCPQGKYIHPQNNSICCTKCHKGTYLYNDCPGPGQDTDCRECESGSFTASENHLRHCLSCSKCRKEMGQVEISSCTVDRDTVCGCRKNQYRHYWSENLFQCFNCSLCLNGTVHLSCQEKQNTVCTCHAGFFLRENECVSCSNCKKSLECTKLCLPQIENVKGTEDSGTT
Method: Microtitre plates were coated with 100 μl/well of 3 μg/ml rHusTNFRI (ProSpec-Tany TechnoGene Ltd, Rehovot, Isreal) in 18MQ-cm H2O overnight at 4 °C and blocked with 1% BSA and 0.05% Tween-20 in PBS for 1 h at 4 °C. Aliquot of 10 μM of biotin-labelled TNF70–80 (Auspep Pty, Ltd., Tullamarine, VIC, Australia) plus various concentrations of unlabelled TNF70–80 or control peptide were added to each well and incubated for 3 h at 4 °C. The wells were washed four times with wash buffer (PBS containing 0.05% Tween-20) and the plates were incubated with 100 μl/well of poly-horseradish peroxidase streptavidin conjugate (1/6000 dilution in 1% BSA and 0.05% Tween-20 in PBS) for 45 min at 4 °C. Wells were washed four times with wash buffer and bound enzyme detected by the addition of 3′,3′,5′,5′-tetramethylbenzidine (TMB) substrate (Sigma-Aldrich, Castle Hill, NSW, Australia). Absorbance was measured using dual filter at 570/450 nm on a Dynatech MR700 Plate Reader (Guernsey, Channel Islands).

[7] = system: p38 MAPK; assay: p38 activation in neutrophils treated with TNF70–80; type: cell-based, human; conditions: neutrophils incubated 15 min with peptide
Method: (§2) The study was approved by the CYWHS Human Ethics Committee (project number HREC 595/12/10). Neutrophils were prepared from peripheral blood of healthy donors, who had given informed consent, by a rapid single-step technique. Blood was layered on to Hypaque-Ficoll (Pharmacia Biotech., Uppsala, Sweden), d = 1.114, and centrifuged at 600 × g for 20–30 min. After centrifugation, the leukocytes resolved into two bands and the neutrophils were harvested from the second band. The preparations of neutrophils were routinely of >99% viability and >98% purity. These were either used as cells in suspension or as adhered neutrophils by adding the cells to plasma-coated plates as previously described. The 70Z/3 pre-B cell line, kindly provided by Dr. W. Langdon, University of Western Australia, Perth, Australia, are mouse pre-B lymphocytes which lack binding sites for human TNF and are non-responsive to the cytokine[18],[19]. The cells were maintained in RPMI 1640 medium with 4.5 g/L glucose, 2 mM L-glutamine, […] 2-mercaptoethanol and 10% FCS in an atmosphere of 95% air and 5% CO2. […]
(§3) p38 activity was determined, after immunoprecipitation, as described using myelin basic protein (MPB) as a substrate for the kinase in the presence of ^32P-ATP[35]. […]

[8] = Method: TNF70–80 and its control ([…]) were synthesised by Auspep Pty Ltd, (Tullamarine, VIC, Australia) and Genscript Biotech (Piscataway, NJ, USA). […] The sequence from the natural TNF-α was modified by substitution of isoleucine for leucine at residue 79. […] Fresh dilutions of the peptide were prepared daily in HBSS or HBSS with 1% BSA. The His-tagged M4 (HM4) ∆HM4 (LKPGTT) was purchased from Auspep Pty Ltd (Tullamarine, VIC, Australia). […] Peptides were stored at −20 °C and solutions were made in HBSS or RPMI prior to use.
[9] = system: p38 activity in HEK 293T cells; assay: p38 activity in HEK 293T cells stably transfected with TRAF2, ∆TRAF2 or empty vector; type: cell-based; conditions: 10 μM
Method: as §2, §3

[10] = system: macrophage; conditions: ability to stimulate nitric oxide production in macrophage; cited from earlier work
Source text: The modification extended the serum half-life ...

[11] = system: p38 activity in 70Z/3 pre-B cells; assay: p38 activity in 70Z/3 pre-B cells, mock- or TNFRI (WT/mutant)-transfected; type: cell-based, mouse
Method: as §2, with “CO2. The monocytic cell line, MonoMac 6 was kindly provided by Dr. H.W.L. Ziegler-Heitbrock (Institute of Clinical Chemistry and Pathobiochemistry, Klinikum rechts der Isar, Technische Universitat, Munchen, Germany) and maintained in RPMI 1640 supplemented with 10% heat-inactivated foetal calf serum, 1 mM pyruvate, glutamine and antibiotics. A mouse fibroblastic fibrosarcoma cell line WEHI-164, clone 13 (from the ATCC) was obtained from Dr. Geeta Chauhdri (John Curtain School of Medical Research, Australian National University, Canberra, Australia). The cells were maintained in RPMI-1640 medium as above and the cells were detached with 0.25% trypsin EDTA. HEK 293T cells were maintained in DMEM, supplemented with 10% foetal calf serum.” for “CO2.”
as §3

[12] = system: Ross River virus (RRV)-infected mice; conditions: cited from earlier work
Source text: Given that the TNFR peptide sequence covers the minimal region that is required for TNF to activate p38, it is likely the peptide alters the dynamics of the TNF–TNFR interaction—allowing not only TNF binding to TNFRI, but also the activation of the other signalling molecules that the receptor normally activates. This implies that other regions of TNFRI mediate the activation of the other signalli ...

## C[S+]([O-])c1ccc(-c2nc(-c3ccncc3)c(-c3ccc(F)cc3)[nH]2)cc1 (stereo not drawn) [SB203580, reference compound]
[1]; neutrophils pre-incubated with inhibitor for 10 min before TNF70–80
  effect on TNF70–80-induced respiratory burst response: inhibited

## C[C@@H](O)[C@H](NC(=O)[C@@H](NC(=O)CN)[C@@H](C)O)C(=O)O [TNFRI209–211] (H-Gly-Thr-Thr-OH)
[2]
  IC50: 123 µM
[3]
  IC50: 146 µM

## EDSGTT [TNFRI206–211]
[2]
  IC50: 171 µM
[3]; TNF-RM (conditioned medium of Staphylococcus aureus-stimulated mononuclear leukocytes, 1:10 in HBSS) treated with peptide, n = 3, read-out: IC50, inhibition of neutrophil response to TNF-rich medium
  IC50: 216 µM

## GEDTST [scrambled control of TNFRI206–211]
[4]
  effect on TNF-induced CD11b expression in neutrophils: Lack of effect
[5]
  binding to TNF, solid phase assay: did not bind

## GGDPGIVTH [scrambled peptide (GGDPGIVTH), control peptide of TNF70–80 (…)]
[6]
  binding to immobilised TNFR1 (competition with biotinylated TNF70–80): Lack of binding

## LKPGTT [∆HM4]
[1]; four experiments
  effect on TNF70–80-stimulated CL production in human neutrophils: dose-dependent suppression

## PSTHVLITHTI [TNF70–80]
[7]
  p38 MAPK activation in neutrophils: activation of p38 MAPK
[8]; after substitution of isoleucine for leucine at residue 79, no method or species printed
  serum half-life: > 90 min
[8]; after substitution of isoleucine for leucine at residue 79, relative to natural sequence
  water solubility: increased
[9]
  p38 activity in cells transfected with dominant-negative TRAF2 (∆TRAF2): but not in those transfected with ∆TRAF2
  p38 activity in cells transfected with wild-type TRAF2 or an empty vector: enhanced the activity of p38
[10]
  concentration that equates to 1000 U/ml of TNF: 5.0 µg/mL
[11]; 70Z/3 cells, M4 TNFRI mutant, 10 μM, p = 0.11, n = 3
  p38 activity effect in M4 TNFRI mutant-transfected cells: retained, albeit appearing reduced
[11]; WT TNFRI- and M1 TNFR1-transfected 70Z/3 cells, 10 μM, 5 min, three experiments
  increase in p38 activity: ~ 2.5 fold
[11]; untransfected (mock) cells
  p38 activity in 70Z/3 pre-B cells lacking TNFRs: failed to stimulate the activity of p38
[1]; neutrophils, chemiluminescence over 45 min
  superoxide production, lucigenin-dependent chemiluminescence: stimulated the production of superoxide in a similar manner to TNF

## QIENVKGTEDSGTT [TNFRI198–211]
[2]
  IC50: 50 µM

## etanercept
[12]
  outcome in RRV-infected mice versus untreated RRV-infected mice: decreased weight gain, higher viral titre in muscle, joints and blood, associated with a greater degree of tissue damage and inflammatory cell recruitment
